Calls of active or inactive are those of the source. The rule behind the calls is not given here.
Test system: CCRIS mutagenicity, Ames/micronucleus/aberration tests
Test: CCRIS mutagenicity studies
[1] = Test System: AMES SALMONELLA TYPHIMURIUM, Strain/Indicator: TA100, Metabolic Activation: NONE, Method: PREINCUBATION
[2] = Test System: AMES SALMONELLA TYPHIMURIUM, Strain/Indicator: TA98, Metabolic Activation: NONE, Method: PREINCUBATION

Cl/C=C(\Cl)SCc1ccccc1
mutagenic call [1]: inactive; negative
mutagenic call (Test System: AMES SALMONELLA TYPHIMURIUM, Strain/Indicator: TA100, Metabolic Activation: RAT, LIVER, S-9, AROCLOR 1254, Method: PREINCUBATION): active; positive

CC(C)CCC[C@@H](C)[C@H]1CC[C@H]2[C@@H]3CC=C4CCCC[C@]4(C)[C@H]3CC[C@]12C
mutagenic call (Test System: AMES SALMONELLA TYPHIMURIUM, Strain/Indicator: TA97A, Metabolic Activation: NONE, Method: STANDARD PLATE): inactive; negative
mutagenic call (Test System: AMES SALMONELLA TYPHIMURIUM, Strain/Indicator: TA97A, Metabolic Activation: RAT, LIVER, S-9, AROCLOR 1254, Method: STANDARD PLATE): inactive; negative
mutagenic call (Test System: AMES SALMONELLA TYPHIMURIUM, Strain/Indicator: TA100, Metabolic Activation: NONE, Method: STANDARD PLATE): inactive; negative
mutagenic call (Test System: AMES SALMONELLA TYPHIMURIUM, Strain/Indicator: TA100, Metabolic Activation: RAT, LIVER, S-9, AROCLOR 1254, Method: STANDARD PLATE): inactive; negative
mutagenic call (Test System: AMES SALMONELLA TYPHIMURIUM, Strain/Indicator: TA102, Metabolic Activation: NONE, Method: STANDARD PLATE): inactive; negative
mutagenic call (Test System: AMES SALMONELLA TYPHIMURIUM, Strain/Indicator: TA102, Metabolic Activation: RAT, LIVER, S-9, AROCLOR 1254, Method: STANDARD PLATE): inactive; negative
mutagenic call (Test System: AMES SALMONELLA TYPHIMURIUM, Strain/Indicator: TA104, Metabolic Activation: NONE, Method: STANDARD PLATE): inactive; negative
mutagenic call (Test System: AMES SALMONELLA TYPHIMURIUM, Strain/Indicator: TA104, Metabolic Activation: RAT, LIVER, S-9, AROCLOR 1254, Method: STANDARD PLATE): inactive; negative

O[C@H]1[C@H]2O[C@H]2c2c(ccc3cc4c(ccc5ccccc54)nc23)[C@@H]1O
mutagenic call [2]: active; positive
mutagenic call [1]: active; positive
mutagenic call (Test System: CHINESE HAMSTER V-79, Strain/Indicator: V-79/8-AZAGUANINE, Metabolic Activation: NONE): active; positive

Cc1ccc2c(c1)C(=O)c1cc(O)ccc1C2=O
mutagenic call [2]: inactive; negative
mutagenic call (Test System: AMES SALMONELLA TYPHIMURIUM, Strain/Indicator: TA98, Metabolic Activation: RAT, LIVER, S-9, PCB, Method: PREINCUBATION): active; positive
mutagenic call [1]: active; positive
mutagenic call (Test System: AMES SALMONELLA TYPHIMURIUM, Strain/Indicator: TA100, Metabolic Activation: RAT, LIVER, S-9, PCB, Method: PREINCUBATION): active; positive

— PubChem BioAssay AID1259407 (Chemical Carcinogenesis Research Information System (CCRIS), 2018)
